Measured values published in patent US20230265103A1 (TME Therapeutics LLC, priority 2021, published 2023).

Molecular target: T1, PIKFYVE (Homo sapiens, UniProt Q9Y2I7)
T1 construct: purchased Eurofins (KINOMEscan); host or cells: E. coli BL21-derived (T7 phage display) or HEK-293
Experiment: KINOMEscan Kinase Assay (Eurofins), PIKFYVE inhibitory activity
Assay type: binding
Conditions: @ 1 nM

T1 sequence (Q9Y2I7 whole entry): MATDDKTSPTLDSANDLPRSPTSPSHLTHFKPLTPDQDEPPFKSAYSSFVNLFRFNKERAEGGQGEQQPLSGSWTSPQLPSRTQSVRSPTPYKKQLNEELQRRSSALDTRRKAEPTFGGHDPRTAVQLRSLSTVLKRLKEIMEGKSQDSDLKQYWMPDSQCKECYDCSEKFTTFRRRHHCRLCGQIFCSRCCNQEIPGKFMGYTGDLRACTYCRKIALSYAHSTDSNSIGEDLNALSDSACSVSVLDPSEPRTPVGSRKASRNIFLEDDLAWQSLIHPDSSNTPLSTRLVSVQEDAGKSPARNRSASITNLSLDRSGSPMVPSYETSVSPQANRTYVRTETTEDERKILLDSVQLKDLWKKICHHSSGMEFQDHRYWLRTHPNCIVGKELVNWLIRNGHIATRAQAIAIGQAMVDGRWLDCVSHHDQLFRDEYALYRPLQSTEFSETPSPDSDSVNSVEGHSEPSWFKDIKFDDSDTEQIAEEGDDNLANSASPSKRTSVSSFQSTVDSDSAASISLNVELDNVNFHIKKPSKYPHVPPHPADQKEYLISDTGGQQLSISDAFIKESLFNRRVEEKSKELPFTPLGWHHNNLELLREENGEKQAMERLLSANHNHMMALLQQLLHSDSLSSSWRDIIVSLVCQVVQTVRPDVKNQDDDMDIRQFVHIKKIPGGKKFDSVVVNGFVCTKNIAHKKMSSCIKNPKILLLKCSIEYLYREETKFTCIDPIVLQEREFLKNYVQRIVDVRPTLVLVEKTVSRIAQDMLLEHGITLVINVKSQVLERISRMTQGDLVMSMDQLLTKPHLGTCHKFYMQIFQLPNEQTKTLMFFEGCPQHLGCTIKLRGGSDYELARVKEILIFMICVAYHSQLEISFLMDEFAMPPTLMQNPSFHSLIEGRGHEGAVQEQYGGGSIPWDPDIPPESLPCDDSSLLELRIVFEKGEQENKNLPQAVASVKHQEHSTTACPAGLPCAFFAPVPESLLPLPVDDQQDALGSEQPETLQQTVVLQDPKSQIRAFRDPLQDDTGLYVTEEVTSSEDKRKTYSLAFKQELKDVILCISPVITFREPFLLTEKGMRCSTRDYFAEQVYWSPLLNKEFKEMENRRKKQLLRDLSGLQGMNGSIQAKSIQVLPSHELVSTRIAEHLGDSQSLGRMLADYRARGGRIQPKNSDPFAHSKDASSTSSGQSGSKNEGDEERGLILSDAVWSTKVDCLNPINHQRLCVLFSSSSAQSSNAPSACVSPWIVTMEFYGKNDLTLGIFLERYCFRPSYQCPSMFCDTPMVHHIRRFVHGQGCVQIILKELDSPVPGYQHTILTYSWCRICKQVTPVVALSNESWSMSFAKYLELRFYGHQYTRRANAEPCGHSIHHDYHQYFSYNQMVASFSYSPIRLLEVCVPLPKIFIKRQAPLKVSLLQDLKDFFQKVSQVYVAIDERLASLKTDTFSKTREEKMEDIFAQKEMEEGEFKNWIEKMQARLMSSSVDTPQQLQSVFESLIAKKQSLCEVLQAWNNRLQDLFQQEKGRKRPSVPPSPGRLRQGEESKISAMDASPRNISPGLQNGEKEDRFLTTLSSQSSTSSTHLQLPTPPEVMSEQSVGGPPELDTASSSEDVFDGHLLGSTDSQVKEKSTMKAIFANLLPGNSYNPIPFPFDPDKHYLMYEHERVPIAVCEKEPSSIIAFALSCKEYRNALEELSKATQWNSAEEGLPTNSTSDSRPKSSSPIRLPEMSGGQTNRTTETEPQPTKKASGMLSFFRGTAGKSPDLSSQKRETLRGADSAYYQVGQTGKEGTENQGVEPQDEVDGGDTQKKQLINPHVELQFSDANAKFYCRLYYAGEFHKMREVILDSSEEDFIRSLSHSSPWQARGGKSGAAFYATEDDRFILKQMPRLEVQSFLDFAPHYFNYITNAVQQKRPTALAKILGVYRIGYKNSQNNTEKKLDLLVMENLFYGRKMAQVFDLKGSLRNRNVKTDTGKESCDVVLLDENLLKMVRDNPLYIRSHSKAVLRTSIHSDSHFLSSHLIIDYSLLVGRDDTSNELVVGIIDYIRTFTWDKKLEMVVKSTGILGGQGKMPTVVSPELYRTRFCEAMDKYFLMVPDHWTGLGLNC

Cc1cccc(-c2ccn(-c3nc(N4CCOCC4)c4nc(CN5CCN(C)CC5)[nH]c4n3)n2)c1 [Ex. 35, 4-(8-((4-methylpiperazin-1-yl)methyl)-2-(3-(m-tolyl)-1H-pyrazol-1-yl)-9H-purin-6-yl)morpholine] was tested. Which inhibition at 0.001 µM did it give?
Its inhibition at 0.001 µM is 13%.

Same assay, conditions: @ 30 nM

How did the inhibition at 0.03 µM turn out when Cc1cccc(-c2ccn(-c3nc(N4CCC(=O)C4)c4sc(CN5CCN(S(C)(=O)=O)CC5)cc4n3)n2)c1 [Ex. 129, 1-(6-((4-(methylsulfonyl)piperazin-1-yl)methyl)-2-(3-(m-tolyl)-1H-pyrazol-1-yl)thieno[3,2-d]pyrimidin-4-yl)pyrrolidin-3-one] was run?
The inhibition at 0.03 µM was 92%.

Same assay, conditions: @ 50 nM

With Cc1cccc(-c2ccn(-c3nc(N4CCOCC4)c4sc(CN5CCC(C(C)(C)O)CC5)cc4n3)n2)c1 [Ex. 5, 2-(1-((4-morpholino-2-(3-(m-tolyl)-1H-pyrazol-1-yl)thieno[3,2-d]pyrimidin-6-yl)methyl)piperidin-4-yl)propan-2-ol] as the compound, how does the inhibition at 0.05 µM read?
Its inhibition at 0.05 µM is 100%.

Same assay, conditions: KINOMEscan

How did the IC50 turn out when Cc1cccc(-c2ccn(-c3cc(N4CCOCC4)c4nc(CN5CCC(N(C)C)CC5)[nH]c4n3)n2)c1 [Ex. 28, N,N-dimethyl-1-((7-morpholino-5-(3-(m-tolyl)-1H-pyrazol-1-yl)-3H-imidazo[4,5-b]pyridin-2-yl)methyl)piperidin-4-amine] was run?
Its IC50 is < 1 nM.

Which IC50 does the source give for Cc1cccc(-c2ccn(-c3cc(N4CCOCC4)c4nc(CO)n(C)c4n3)n2)c1 [Ex. 75, (3-methyl-7-morpholino-5-(3-(m-tolyl)-11H-pyrazol-1-yl)-3H-imidazo[4,5-b]pyridin-2-yl)methanol] here?
Its IC50 is 1 to 10 nM.

How did the IC50 turn out when Cc1cccc(-c2ccn(-c3nc(N4CCOCC4)c4sc(C(=O)N5CCC(C(C)(C)O)CC5)c(C)c4n3)n2)c1 [Ex. 61, (4-(2-hydroxypropan-2-yl)piperidin-1-yl)(7-methyl-4-morpholino-2-(3-(m-tolyl)-1H-pyrazol-1-yl)thieno[3,2-d]pyrimidin-6-yl)methanone] was run?
Its IC50 is < 1 nM.

With Cc1cccc(-c2ccn(-c3nc(N4CCOCC4)c4nc(CN5CCC(N(C)C)CC5)[nH]c4n3)n2)c1 [Ex. 15, N,N-dimethyl-1-((6-morpholino-2-(3-(m-tolyl)-1H-pyrazol-1-yl)-9H-purin-8-yl)methyl)piperidin-4-amine] as the compound, how does the IC50 read?
Its IC50 is < 1 nM.

Cc1cccc(-c2ccn(-c3nc(N4CCCOCC4)c4sc(CN5CCN(S(C)(=O)=O)CC5)cc4n3)n2)c1 [Ex. 71, 4-(6-((4-(methylsulfonyl)piperazin-1-yl)methyl)-2-(3-(m-tolyl)-1H-pyrazol-1-yl)thieno[3,2-d]pyrimidin-4-yl)-1,4-oxazepane] was tested. Which IC50 did it give?
The IC50 was 10 to 100 nM.

Which IC50 does the source give for Cc1cccc(-c2ccn(-c3nc(N4CC5CC4CO5)c4sc(CN5CCN(S(C)(=O)=O)CC5)cc4n3)n2)c1 (centres unmarked) [Ex. 73, 5-(6-((4-(methylsulfonyl)piperazin-1-yl)methyl)-2-(3-(m-tolyl)-1H-pyrazol-1-yl)thieno[3,2-d]pyrimidin-4-yl)-2-oxa-5-azabicyclo[2.2.1]heptane] here?
Its IC50 is 10 to 100 nM.

With Cc1cccc(-c2ccn(-c3nc(N4CCOCC4)c4sc(CN5CC(C6CCOCC6)C5)c(C)c4n3)n2)c1 [Ex. 63, 4-(7-methyl-6-((3-(tetrahydro-2H-pyran-4-yl)azetidin-1-yl)methyl)-2-(3-(m-tolyl)-1H-pyrazol-1-yl)thieno[3,2-d]pyrimidin-4-yl)morpholine] as the compound, how does the IC50 read?
Its IC50 is 1 to 10 nM.

How did the IC50 turn out when Cc1cccc(-c2ccn(-c3nc(N4CCOCC4)c4sc(CN5CCN(S(C)(=O)=O)CC5)c(C)c4n3)n2)c1 [Ex. 54, 4-(7-methyl-6-((4-(methylsulfonyl)piperazin-1-yl)methyl)-2-(3-(m-tolyl)-1H-pyrazol-1-yl)thieno[3,2-d]pyrimidin-4-yl)morpholine] was run?
The IC50 was < 1 nM.

For Cc1cccc(-c2ccn(-c3cc(N4CCOCC4)c4nc(CN5CCOCC5)[nH]c4n3)n2)c1 [Ex. 38, 4-((7-morpholino-5-(3-(m-tolyl)-1H-pyrazol-1-yl)-3H-imidazo[4,5-b]pyridin-2-yl)methyl)morpholine], which IC50 is on record?
Its IC50 is < 1 nM.

For Cc1cccc(-c2ccn(-c3nc(N4CCOCC4)c4nc(-c5cnn(C)c5)[nH]c4n3)n2)c1 [Ex. 44, 4-(8-(1-methyl-1H-pyrazol-4-yl)-2-(3-(m-tolyl)-1H-pyrazol-1-yl)-9H-purin-6-yl)morpholine], which IC50 is on record?
The IC50 was < 1 nM.

For Cc1cccc(-c2ccn(-c3nc(N4CCOCC4)c4nc(CN5CCN(C)CC5)sc4n3)n2)c1 [Ex. 34, 4-(2-((4-methylpiperazin-1-yl)methyl)-5-(3-(m-tolyl)-1H-pyrazol-1-yl)thiazolo[5,4-d]pyrimidin-7-yl)morpholine], which IC50 is on record?
The IC50 was 1 to 10 nM.

Which IC50 does the source give for Cc1cccc(-c2ccn(-c3nc(N4CCOCC4)c4sc(CN5CCC(N6CCC6)C(F)C5)c(C)c4n3)n2)c1 (centres unmarked) [Ex. 58, 4-(6-((4-(azetidin-1-yl)-3-fluoropiperidin-1-yl)methyl)-7-methyl-2-(3-(m-tolyl)-1H-pyrazol-1-yl)thieno[3,2-d]pyrimidin-4-yl)morpholine] here?
Its IC50 is < 1 nM.

Cc1cccc(-c2ccn(-c3nc(N4CCOCC4)c4sc(CN5CCC(N6CCOCC6)CC5)cc4n3)n2)c1 [Ex. 33, 4-(1-((4-morpholino-2-(3-(m-tolyl)-1H-pyrazol-1-yl)thieno[3,2-d]pyrimidin-6-yl)methyl)piperidin-4-yl)morpholine] was tested. Which IC50 did it give?
The IC50 was > 100 nM.

Cc1cccc(-c2ccn(-c3nc(N4CCOCC4)c4sc(C(=O)N5CCN(C)CC5)c(C)c4n3)n2)c1 [Ex. 59, (7-methyl-4-morpholino-2-(3-(m-tolyl)-1H-pyrazol-1-yl)thieno[3,2-d]pyrimidin-6-yl)(4-methylpiperazin-1-yl)methanone] was tested. Which IC50 did it give?
The IC50 was 1 to 10 nM.

With CS(=O)(=O)N1CCN(Cc2cc3nc(-n4ccc(-c5cccc(Br)c5)n4)nc(N4CCOCC4)c3s2)CC1 [Ex. 1, 4-(2-(3-(3-bromophenyl)-1H-pyrazol-1-yl)-6-((4-(methylsulfonyl)piperazin-1-yl)methyl)thieno[3,2-d]pyrimidin-4-yl)morpholine] as the compound, how does the IC50 read?
Its IC50 is 1 to 10 nM.

How did the IC50 turn out when Cc1cccc(-c2ccn(-c3cc(N4CCOCC4)c4sc(CN5CCN(S(C)(=O)=O)CC5)cc4n3)n2)c1 [Ex. 68, 4-(2-((4-(methylsulfonyl)piperazin-1-yl)methyl)-5-(3-(m-tolyl)-1H-pyrazol-1-yl)thieno[3,2-b]pyridin-7-yl)morpholine] was run?
Its IC50 is < 1 nM.

For Cc1cccc(-c2ccn(-c3nc(N4CCOCC4)c4nc(CN5CCC(C(C)(C)O)CC5)[nH]c4n3)n2)c1 [Ex. 13, 2-(1-((6-morpholino-2-(3-(m-tolyl)-1H-pyrazol-1-yl)-9H-purin-8-yl)methyl)piperidin-4-yl)propan-2-ol], which IC50 is on record?
The IC50 was 1 to 10 nM.

With Cc1cccc(-c2ccn(-c3nc(N4CCOCC4)c4nc(CN5CCC(N6CCC6)C(F)C5)sc4n3)n2)c1 (centres unmarked) [Ex. 47, 4-(2-((4-(azetidin-1-yl)-3-fluoropiperidin-1-yl)methyl)-5-(3-(m-tolyl)-1H-pyrazol-1-yl)thiazolo[5,4-d]pyrimidin-7-yl)morpholine] as the compound, how does the IC50 read?
Its IC50 is < 1 nM.

Cc1cccc(-c2ccn(-c3cc(N4CCOCC4)c4nc(CN5CCN(S(C)(=O)=O)CC5)[nH]c4n3)n2)c1 [Ex. 27, 4-(2-((4-(methylsulfonyl)piperazin-1-yl)methyl)-5-(3-(m-tolyl)-1H-pyrazol-1-yl)-3H-imidazo[4,5-b]pyridin-7-yl)morpholine] was tested. Which IC50 did it give?
Its IC50 is < 1 nM.

For Cc1cccc(-c2ccn(-c3nc(N4CCOCC4)c4nc(-c5cnn(C)c5)sc4n3)n2)c1 [Ex. 49, 4-(2-(1-methyl-1H-pyrazol-4-yl)-5-(3-(m-tolyl)-1H-pyrazol-1-yl)thiazolo[5,4-d]pyrimidin-7-yl)morpholine], which IC50 is on record?
The IC50 was < 1 nM.
